Values after ≈ are worked out from the molar mass of the structure shown. Where two headings read alike, the source gives them in different places. Square brackets hold non-standard residues; d marks the D form. Ends that are not written are not given here. Peptide text beside a SMILES is read from it. * marks the point of attachment. Trp(2-Pmc) = Cc1c(C)c(S(=O)(=O)c2[nH]c3ccccc3c2C[C@H](N)C(=O)O)c(C)c2c1OC(C)(C)CC2; Fmoc = O=C(OCC1c2ccccc2-c2ccccc21)*; Acm = CC(=O)NC*
What was measured:
human red blood cells = test: Hemolytic assay; type: cell-based
Experimental: The hemolytic activities of the peptides were determined using fresh human red blood cells. 8 ml blood was taken from a healthy person. 4 ml blood was transferred to a polycarbonate tube containing heparin to a final concentration of 10 U/ml, and the remaining 4 ml blood was transferred to a glass tube containing EDTA with final concentration of 15% EDTA. The erythrocytes were isolated from heparin-treated blood by centrifugation in 1500 rpm for 10 min and washed three times with phosphate-buffered saline (PBS) to remove plasma and buffy coat. The cell pellet was resuspended in PBS to make the final volume of 4 ml. The peptide was diluted to a concentration of 2 mg/ml and 0.1 mg/ml. The peptide was further diluted to the concentrations as stated in Table 15. For each tube PBS was added first, then RBCs and peptide solutions. The hematocrit in the blood treated with EDTA was determined after 30 min with Sysmex K-1000, and the resuspended RBCs were diluted into 10% hematocrit. RBCs in PBS (1%) with and without peptides (Table 15) were incubated in a shaker at […] for 1 hour and then centrifuged at 4000 rpm for 5 min. The supernatant were carefully transferred to new polycarbonate tubes and the absorbance of the supernatant was measured at 540 nm. Baseline hemolysis was hemoglobin released in the presence of PBS, and 100% hemolysis was hemoglobin released in the presence of 0.1% Triton X-100.

[1] = test system: Meth A cells (murine sarcoma cell line); test: Cytotoxicity on Meth A cells, MTT method
Experimental: Peptide solutions (0.1 ml) were added and the plates incubated at 37° C. for 30 minutes, 4 hours or 24 hours. The cytotoxicity was measured using the MTT method (Mosmann et al., J. Immunol. (1986) 136, 2348-2357).
Cells in the growth phase were harvested and washed in fresh medium and injected subcutaneously into the abdominal region of the mice.
The cytotoxic effect of the peptides on different murine and human tumor cells were measured using the MTT method (Mosmann et al., J. Immunol. (1986) 136, 2348-2357). MTT is a soluble tetrazolium salt yielding a yellow solution when prepared in media or salt solutions lacking phenol red. Dissolved MTT is converted to an insoluble purple formazan by cleavage of the tetrazolium ring by dehydrogenase enzymes. This water insoluble formazan can be solubilized using isopropanol or other solvents and the dissolved material is measured spectrophotometrically. The absorbance was measured as a function of concentration of converted dye.
Cells were maintained in […] medium containing 10% FBS, 1% L-glutamine and 0.1% penicillin and streptomycin. Cells to be used in the assay were grown to confluency, trypsinated and split to single cell suspension, counted and centrifuged at 1500 rpm for 10 min. […][…] of cell suspension was transferred to each well on a 96-well microtiter plate. The cells were stimulated by adding […] of various concentrations of peptides diluted with assay medium to each well. The final concentrations of peptide were for example: 5, 10, 20, 40, 60, 80, 100, and 200 mg/ml. […] As a negative control only medium was added to the cells, and as a positive control (100% killing) 1% triton X-100 was added. Following an incubation period of 4 h., 20 ml MTT dissolved in PBS at a concentration of 5 mg/ml was added to each well, and the plate was incubated further for 2 h. 130 ml of the supernatant were then removed and […] acid alcohol (0.04-0.1 N HCl in isopropanol) added to each well to dissolve the dark blue crystals. The plate was placed on a shaker for 1 h and read spectrophotometrically at 590 nm in a microtiterplate reader using the Softmaxâ program.

[2] = test system: Escherichia coli ATCC 25922; type: cell-based
Procedure, shortened: (§1)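 Inoculum of 2×10^6 CFU/ml, mid-logarithmic growth phase, in 1% Bacto Peptone water; standard microdilution, performed in triplicate.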

[3] = test system: Staphylococcus aureus ATCC 25923; type: cell-based
Procedure, shortened: as §1

[4] = read-out: MethA IC 50, Table 7, peptide required to kill 50% of MethA cells

## CSCC[C@H](NC(=O)[C@H](CCCNC(=N)N)NC(=O)[C@H](C)NC(=O)[C@H](CCC(N)=O)NC(=O)[C@H](Cc1c(S(=O)(=O)c2c(C)c(C)c3c(c2C)CCC(C)(C)O3)[nH]c2ccccc12)NC(=O)[C@H](CCCNC(=N)N)NC(=O)[C@H](CCCNC(=N)N)NC(=O)[C@H](CSCNC(C)=O)NC(=O)[C@H](CCCCN)NC(=O)[C@H](Cc1ccccc1)NC(=O)OCC1c2ccccc2-c2ccccc21)C(=O)N[C@@H](CCCCN)C(=O)N[C@@H](CCCCN)C(=O)N[C@@H](CC(C)C)C(=O)NCC(=O)N[C@@H](C)C(=O)O [LFB A8 FMOC PMC] (Fmoc-FKC(Acm)RR[Trp(2-Pmc)]QARMKKLGA-OH)
Human red blood cells; red cells of human
  % Hemolysis 10 μg/ml: 6.75%
  % Hemolysis 100 μg/ml: 45.4%
[1]; after 4 hours incubation
  concentration killing Meth A tumor cells: 50 µg/mL
[1]; after ½ hour incubation
  concentration killing Meth A tumor cells: higher than 100 μg/ml

## CSCC[C@H](NC(=O)[C@H](CCCNC(=N)N)NC(=O)[C@H](Cc1c[nH]c2ccccc12)NC(=O)[C@H](CCC(N)=O)NC(=O)[C@H](Cc1c(S(=O)(=O)c2c(C)c(C)c3c(c2C)CCC(C)(C)O3)[nH]c2ccccc12)NC(=O)[C@H](CCCNC(=N)N)NC(=O)[C@H](CCCNC(=N)N)NC(=O)[C@H](CSCNC(C)=O)NC(=O)[C@H](CCCCN)NC(=O)[C@@H](N)Cc1ccccc1)C(=O)N[C@@H](CCCCN)C(=O)N[C@@H](CCCCN)C(=O)N[C@@H](CC(C)C)C(=O)NCC(=O)N[C@@H](C)C(=O)O [LFB PMC6]
[2]; Table 11
  MIC E. coli: 10 µg/mL (≈ 4.29 µM)
[3]; Table 11
  MIC S. aureus: 10 µg/mL (≈ 4.29 µM)
Human red blood cells
  EC 50: >1000 µg/mL
  EC50: > 429 µM
Human red blood cells; red cells of human
  % Hemolysis 10 μg/ml: 3.4%
  % Hemolysis 100 μg/ml: 6%
[1]; 4 h
  MethA IC50: 148 µg/mL

## CSCC[C@H](NC(=O)[C@H](CCCNC(=N)N)NC(=O)[C@H](Cc1c[nH]c2ccccc12)NC(=O)[C@H](C)NC(=O)[C@H](Cc1c[nH]c2ccccc12)NC(=O)[C@H](CCCNC(=N)N)NC(=O)[C@H](CCCNC(=N)N)NC(=O)OCC1c2ccccc2-c2ccccc21)C(=O)N[C@@H](CCCCN)C(=O)N[C@@H](CCCCN)C(=O)O [LFB 20-28 A4 FMOC] (Fmoc-RRWAWRMKK-OH)
[1]; 4 h
  MethA IC50: 120 µg/mL

## CSCC[C@H](NC(=O)[C@H](CCCNC(=N)N)NC(=O)[C@H](Cc1c[nH]c2ccccc12)NC(=O)[C@H](C)NC(=O)[C@H](Cc1c[nH]c2ccccc12)NC(=O)[C@H](CCCNC(=N)N)NC(=O)[C@H](CCCNC(=N)N)NC(=O)[C@H](C)NC(=O)[C@H](CCCCN)NC(=O)[C@H](Cc1ccccc1)NC(=O)[C@H](Cc1c[nH]c2ccccc12)NC(=O)[C@H](C)NC(=O)[C@@H]1CCCN1)C(=O)N[C@@H](CCCCN)C(=O)N[C@@H](CCCCN)C(=O)N[C@@H](CC(C)C)C(=O)N[C@@H](C)C(=O)N[C@@H](C)C(=O)O [LFB 14-31 A2,6, 10, 17]
[2]; ATCC 25922
  MIC E. coli: 20 µg/mL (≈ 8.8 µM)
[3]; ATCC 25923
  MIC S. aureus: 2.5 µg/mL (≈ 1.1 µM)
Human red blood cells; red cells of human
  EC50: > 440 µM
[1]; 4 h
  EC50: 165 µM
  IC50: 165 µM
[1]; [4]
  IC50: 165 µM

## PAWRKARRWARRMKKLAA-OH [LFB 14-31 A2,6, 10, 17R4, 11]
Human red blood cells; red cells of human
  EC50: > 444 µM
[1]; [4]
  IC50: 75.5 µM

## PAWRKAFRWAWRMKKLAA-OH [LFB 14-31 A2,6, 10, 17F7R4]
[2]; ATCC 25922
  MIC E. coli: 10 µg/mL
[3]; ATCC 25923
  MIC S. aureus: 2.5 µg/mL
Human red blood cells; red cells of human
  EC50: > 440 µM
[1]; [4]
  IC50: 30.2 µM

## RRWQWRMKKL-OH [LFB 20-29]
[2]; ATCC 25922
  MIC E. coli: 60 µg/mL
[3]; ATCC 25923
  MIC S. aureus: >100 µg/mL
Human red blood cells; red cells of human
  % Hemolysis 10 μg/ml: 1.75%
  % Hemolysis 100 μg/ml: 2.74%
[1]; 4 h
  MethA IC50: 500 µg/mL

## CSCC[C@H](NC(=O)[C@H](CCCNC(=N)N)NC(=O)[C@H](Cc1c[nH]c2ccccc12)NC(=O)[C@H](CCC(N)=O)NC(=O)[C@H](Cc1c[nH]c2ccccc12)NC(=O)[C@H](CCCNC(=N)N)NC(=O)[C@H](CCCNC(=N)N)NC(=O)OCC1c2ccccc2-c2ccccc21)C(=O)N[C@@H](CCCCN)C(=O)N[C@@H](CCCCN)C(=O)N[C@@H](CC(C)C)C(=O)O [LFB 20-29 FMOC] (Fmoc-RRWQWRMKKL-OH)
[2]; ATCC 25922
  MIC E. coli: 5 µg/mL (≈ 2.92 µM)
[3]; ATCC 25923
  MIC S. aureus: 10 µg/mL (≈ 5.85 µM)
Human red blood cells; red cells of human
  % Hemolysis 10 μg/ml: 10.3%
  % Hemolysis 100 μg/ml: 28.2%
[1]; 4 h
  MethA IC50: 140 µg/mL

## H-FKARRWQWRMKKLGA-OH [LFB A3]
[2]; ATCC 25922
  MIC E. coli: 25 µg/mL
[3]; ATCC 25923
  MIC S. aureus: 100 µg/mL
[1]; 4 h
  MethA IC50: 500 µg/mL
